Patent US20080009435A1, “Synthetic methods for aplidine and new antitumoral derivatives, methods of making and using them” (Pharma Mar, S.A., a Spain corporation, priority 2000, published 2008)
Where two headings read alike, the source gives them in different places. *1 amine or outer side, *2 acyl side, *3 side chain or, on linkers, in order; H or OH if unused. Where a SMILES comes first, the peptide text is derived from it. Bridges are numbered along the chain shown (N, C = ends). [ ]: non-standard residue; d: D form. The star is where a group is joined. ξ: configuration not given here. X1 = CC[C@H](C)[C@@H](N[*:1])[C@@H](O)CC(=O)O[C@H](C(=O)[C@H](C)C(=O)[*:2])C(C)C; X2 = CC[C@H](C)[C@@H](N[*:1])[C@@H](O)CC(=O)[*:2]; X4 = CC(C)[C@H](N[*:1])C(=O)[C@H](C)C(=O)[*:2]; X3 = C[C@H](O[Si](C)(C)C(C)(C)C)C(=O)*; NMeY = CN[C@@H](Cc1ccc(O)cc1)C(=O)O; dNMeL = CN[C@H](CC(C)C)C(=O)O; Hiv = CC(C)[C@H](O)C(=O)O; Isobutyryl = CC(C)C(=O)*; Cbz = O=C(OCc1ccccc1)*; Boc = CC(C)(C)OC(=O)*; CO = O=C([*:1])[*:2]; ξP = O=C(O)C1CCCN1; Ms = CS(=O)(=O)*; NHBu = CCCCN*

Assays:
[1] = system: DU145 human prostate carcinoma; test: Cytotoxicity IC50 (after Berjeron et al); format: cell-based
Excerpt: P388=Murine lymphoma. A549=human lung carcinoma. HT-29=human colon carcinoma. MEL-28=human melanoma. DU145=human prostate carcinoma
Chem. 2000, 65, 782-792. Their synthesis was published before their discovery (l): Org. […] A549=human lung carcinoma. HT-29=human colon carcinoma. MEL-28=human melanoma. DU145=human prostate carcinoma

P388 Murine lymphoma = test: Cytotoxicity IC50 (after Berjeron et al)
Excerpt: (§1) Methodology: after Berjeron et al, Biochem and Bioph Res. Comm., 1984, 121, 3, 848-854.

[2] = system: A549 human lung carcinoma; test: Cytotoxicity IC50 (after Berjeron et al)
Excerpt: as §1

[3] = system: HT-29 human colon carcinoma; test: Cytotoxicity IC50 (after Berjeron et al)
Excerpt: as §1

MEL-28 human melanoma = test: Cytotoxicity IC50 (after Berjeron et al)
Excerpt: as §1

tumor cells = test: In vitro antitumor activity; format: cell-based
[4] = DU145, read-out: Cytotoxicity of aplidine derivatives IC50 (Molar) DU145
[5] = read-out: Cytotoxicity of aplidine derivatives IC50 (Molar) P388, P388
[6] = read-out: Cytotoxicity of aplidine derivatives IC50 (Molar) A549, A549
[7] = read-out: Cytotoxicity of aplidine derivatives IC50 (Molar) HT29, HT29
[8] = read-out: Cytotoxicity of aplidine derivatives IC50 (Molar) MEL28, MEL28
[9] = Mus musculus, P388, read-out: Cytotoxicity of aplidine derivatives IC50 (Molar) P388
[10] = Homo sapiens, A549, read-out: Cytotoxicity of aplidine derivatives IC50 (Molar) A549
[11] = Homo sapiens, HT-29, read-out: Cytotoxicity of aplidine derivatives IC50 (Molar) HT29
[12] = Homo sapiens, SK-MEL-28, read-out: Cytotoxicity of aplidine derivatives IC50 (Molar) MEL28

Row | Compound | IC50 [2, 10] | IC50 [3, 11] | also measured
1 | [Hiv]^3 Z-Didemnin A [SHPL3] | – | – | IC50 [1, 4]: 4.9 nM; IC50 (P388 Murine lymphoma; [5]): 4.9 nM; IC50 [2, 6]: 4.9 nM; IC50 [3, 7]: 4.9 nM; IC50 (MEL-28 human melanoma; [8]): 4.9 nM
2 | [Val]^3 Z-Didemnin A [SVPL3] | – | – | IC50 [1, 4]: 0.98 nM; IC50 (P388 Murine lymphoma; [5]): 0.98 nM; IC50 [2, 6]: 0.98 nM; IC50 [3, 7]: 0.98 nM; IC50 (MEL-28 human melanoma; [8]): 0.98 nM
3 | [ZNVa-Pro]^9-aplidine [9NVSAPL2] | – | – | IC50 [1, 4]: 3.93 nM; IC50 (P388 Murine lymphoma; [5]): 7.9 nM; IC50 [2, 6]: 3.93 nM; IC50 [3, 7]: 3.93 nM; IC50 (MEL-28 human melanoma; [8]): 3.93 nM
4 | [MeVal]^3-aplidine | – | – | in vitro antitumor activity (tumor cells): high level of in vitro antitumor activity
5 | CC[C@H](C)[C@H]1NC(=O)[C@@H](NC(=O)[C@@H](CC(C)C)NC)[C@@H](C)OC(=O)[C@H](Cc2ccc(OC)cc2)N(C)C(=O)[C@@H]2CCCN2C(=O)[C@H](CC(C)C)NC(=O)[C@H](C(C)C)NC(=O)C[C@@H]1O [SVPL2, [Val]^3-Didemnin A] (H-[dNMeL]T[X2]VLP[NMeY](Me); ester 2-C) | 1.13 nM | 1.13 nM | IC50 ([1]; Homo sapiens, DU-145, read-out: Cytotoxicity of aplidine derivatives IC50 (Molar) DU145): 1.13 nM; IC50 (P388 Murine lymphoma; [9]): 1.1 nM; IC50 (MEL-28 human melanoma; [12]): 1.13 nM
6 | CC[C@H](C)[C@H]1NC(=O)[C@@H](NC(=O)[C@@H](CC(C)C)N(C)C(=O)[C@@H]2CCCN2C(=O)C(C)C)[C@@H](C)OC(=O)[C@H](Cc2ccc(OC)cc2)N(C)C(=O)[C@@H]2CCCN2C(=O)[C@H](CC(C)C)NC(=O)[C@H](C(C)C)NC(=O)C[C@@H]1O [9ISVPL1, [Val]^3-[Isobutyryl]^9-aplidine] (Isobutyryl-P[dNMeL]T[X2]VLP[NMeY](Me); ester 3-C) | 0.475 nM | 0.475 nM | –
7 | [Hiv]^3-[Pro]^8-didemnin A [8PSHPL1] | – | – | IC50 [2, 6]: 1.01 nM; IC50 [3, 7]: 1.01 nM
8 | [Hiv]^3-[D-Lac(OTBDMS)]^9-aplidine [9LSHPL2(D)] | – | – | IC50 [2, 6]: 85.5 nM; IC50 [3, 7]: 85.5 nM
9 | CC[C@H](C)[C@H]1NC(=O)[C@@H](NC(=O)[C@@H](CC(C)C)N(C)C(=O)C2CCCN2C(=O)[C@H](C)O[Si](C)(C)C(C)(C)C)[C@@H](C)OC(=O)[C@H](Cc2ccc(OC)cc2)N(C)C(=O)[C@@H]2CCCN2C(=O)[C@H](CC(C)C)NC(=O)[C@H](C(C)C)OC(=O)C[C@@H]1O (stereo partly drawn) [9LSHPL2(L), [Hiv]^3-[L-Lac(OTBDMS)]^9-aplidine] (X3-[ξP][dNMeL]T[X2][Hiv]LP[NMeY](Me); ester 3-C) | 8.55 nM | 8.55 nM | –
10 | C=C(C)C(=O)N1CCC[C@]12CCN([C@H](CC(C)C)C(=O)N[C@@H]1C(=O)N[C@H]([C@@H](C)CC)[C@@H](O)CC(=O)O[C@@H](C(C)C)C(=O)N[C@@H](CC(C)C)C(=O)N3CCC[C@H]3C(=O)N(C)[C@@H](Cc3ccc(OC)cc3)C(=O)O[C@@H]1C)C2=O [9SASHPL1] | 93.9 nM | 93.9 nM | –
11 | CC[C@H](C)[C@H]1NC(=O)[C@@H](NC(=O)[C@@H](CC(C)C)NC)[C@@H](C)OC(=O)[C@H](Cc2ccc(OC)cc2)N(C)C(=O)[C@@H]2CCCN2C(=O)[C@H](CC(C)C)NC(=O)[C@H](C(C)C)OC(=O)C[C@@H]1O [SHPL2, [Hiv]^3-Didemnin A] (H-[dNMeL]T[X2][Hiv]LP[NMeY](Me); ester 2-C) | 1.13 nM | 1.13 nM | IC50 (P388 Murine lymphoma; [9]): 1.1 nM; IC50 (MEL-28 human melanoma; [12]): 1.13 nM
12 | CC[C@H](C)[C@H]1NC(=O)[C@@H](NC(=O)[C@@H](CC(C)C)N(C)C(=O)C(C)C)[C@@H](C)OC(=O)[C@H](Cc2ccc(OC)cc2)N(C)C(=O)[C@@H]2CCCN2C(=O)[C@H](CC(C)C)NC(=O)[C@H](C(C)C)OC(=O)C[C@@H]1O [8ISHPL1, [Hiv]^3-[isobutyryl]^8-didemnin A] (Isobutyryl-[dNMeL]T[X2][Hiv]LP[NMeY](Me); ester 2-C) | 0.522 nM | 0.522 nM | –
13 | CC[C@H](C)[C@H]1NC(=O)[C@@H](NC(=O)[C@@H](CC(C)C)N2CC[C@]3(CCCN3C(=O)OC(C)(C)C)C2=O)[C@@H](C)OC(=O)[C@H](Cc2ccc(OC)cc2)N(C)C(=O)[C@@H]2CCCN2C(=O)[C@H](CC(C)C)NC(=O)[C@@H](C)C(=O)[C@H](C(C)C)OC(=O)C[C@@H]1O [9SBSAPL1, [(5R)-1-(tert-buthoxycarbonyl)-7-[(1R)-1-carboxy-3-methylbutyl]-6-oxo-1,7-diazaspiro[4,4]nonane]^7-9-aplidine] | 8.68 nM | 8.68 nM | –
14 | CC[C@H](C)[C@H]1NC(=O)[C@@H](NC(=O)[C@@H](CC(C)C)N(C)C(=O)C(C)C)[C@@H](C)OC(=O)[C@H](Cc2ccc(OC)cc2)N(C)C(=O)[C@@H]2CCCN2C(=O)[C@H](CC(C)C)NC(=O)[C@H](C(C)C)NC(=O)C[C@@H]1O [8ISVPL1, [Val]^3-[Isobutyryl]^8-didemnin A] (Isobutyryl-[dNMeL]T[X2]VLP[NMeY](Me); ester 2-C) | 0.105 nM | 0.105 nM | –
15 | CC[C@H](C)[C@H]1NC(=O)[C@@H](NC(=O)[C@@H](CC(C)C)N2CC[C@]3(CCCN3C(=O)C(C)C)C2=O)[C@@H](C)OC(=O)[C@H](Cc2ccc(OC)cc2)N(C)C(=O)[C@@H]2CCCN2C(=O)[C@H](CC(C)C)NC(=O)[C@@H](C)C(=O)[C@H](C(C)C)OC(=O)C[C@@H]1O [9SISAPL1, [(5R)-1-(isobutiryl)-7-[(R)-1-carboxy-3-methylbutyl]-6-oxo-1,7-diazaspiro[4,4]nonane]^7-9-Aplidine] | 89.1 nM | 89.1 nM | –
16 | CC[C@H](C)[C@H]1NC(=O)[C@@H](NC(=O)[C@@H](CC(C)C)NC)[C@@H](C)OC(=O)[C@H](Cc2ccc(OC)cc2)N(C)C(=O)[C@@H]2CCCN2C(=O)[C@H](CC(C)C)NC(=O)[C@@H](C)C(=O)[C@H](C(C)C)OC(=O)C[C@@H]1O [SAPL2, Didemnin A, reference compound] (H-[dNMeL]T[X1]LP[NMeY](Me); ester 2-C) | 4.24 nM | 8.48 nM | IC50 (P388 Murine lymphoma; [9]): 5.3 nM; IC50 (MEL-28 human melanoma; [12]): 1.13 nM
17 | CC[C@H](C)[C@H]1NC(=O)[C@@H](NC(=O)[C@@H](CC(C)C)NC)[C@@H](C)OC(=O)[C@H](Cc2ccc(OC)cc2)N(C)C(=O)[C@@H]2CCCN2C(=O)[C@H](CC(C)C)NC(=O)[C@@H](C)C(=O)[C@H](C(C)C)NC(=O)C[C@@H]1O [SNPL2, [Aip]^3-Didemnin A] (H-[dNMeL]T[X2][X4]LP[NMeY](Me); ester 2-C) | 10.6 nM | 10.6 nM | –
18 | CCCCNC(=O)N(C)[C@H](CC(C)C)C(=O)N[C@@H]1C(=O)N[C@H]([C@@H](C)CC)[C@@H](O)CC(=O)O[C@@H](C(C)C)C(=O)[C@H](C)C(=O)N[C@@H](CC(C)C)C(=O)N2CCC[C@H]2C(=O)N(C)[C@@H](Cc2ccc(OC)cc2)C(=O)O[C@@H]1C [8BUSAPL1, [Butylurea]^8-didemnin A] ({NHBu-CO}-[dNMeL]T[X1]LP[NMeY](Me); ester 2-C) | 0.0959 nM | 0.0959 nM | –
19 | CC[C@H](C)[C@H]1NC(=O)[C@@H](NC(=O)[C@@H](CC(C)C)N(C)C(=O)OCc2ccccc2)[C@@H](C)OC(=O)[C@H](Cc2ccc(OC)cc2)N(C)C(=O)[C@@H]2CCCN2C(=O)[C@H](CC(C)C)NC(=O)[C@@H](C)C(=O)[C@H](C(C)C)OC(=O)C[C@@H]1O [SAPL3, Z-Didemnin A] (Cbz-[dNMeL]T[X1]LP[NMeY](Me); ester 2-C) | 2.32 nM | 4.64 nM | IC50 (P388 Murine lymphoma; [9]): 9.3 nM; IC50 (MEL-28 human melanoma; [12]): 4.64 nM
20 | CC[C@H](C)[C@H]1NC(=O)[C@@H](NC(=O)[C@@H](CC(C)C)N(C)C(=O)[C@@H]2CCCN2C(=O)[C@H](C)NC(=O)OC(C)(C)C)[C@@H](C)OC(=O)[C@H](Cc2ccc(OC)cc2)N(C)C(=O)[C@@H]2CCCN2C(=O)[C@H](CC(C)C)NC(=O)[C@H](C(C)C)OC(=O)C[C@@H]1O [9BASHPL2, [Hiv]^3-[Boc-Ala]^9-aplidine] (Boc-AP[dNMeL]T[X2][Hiv]LP[NMeY](Me); ester 4-C) | 8.65 nM | 8.65 nM | –
21 | CC[C@H](C)[C@H]1NC(=O)[C@@H](NC(=O)[C@@H](CC(C)C)N(C)C(=O)[C@@H](N)C(C)C)[C@@H](C)OC(=O)[C@H](Cc2ccc(OC)cc2)N(C)C(=O)[C@@H]2CCCN2C(=O)[C@H](CC(C)C)NC(=O)[C@H](C(C)C)OC(=O)C[C@@H]1O [8VSHPL1, [Hiv]^3-[Val]^8-didemnin A] (H-V[dNMeL]T[X2][Hiv]LP[NMeY](Me); ester 3-C) | 1.01 nM | 1.01 nM | –
22 | CC[C@H](C)[C@H]1NC(=O)[C@@H](NC(=O)[C@@H](CC(C)C)N(C)S(C)(=O)=O)[C@@H](C)OC(=O)[C@H](Cc2ccc(OC)cc2)N(C)C(=O)[C@@H]2CCCN2C(=O)[C@H](CC(C)C)NC(=O)[C@@H](C)C(=O)[C@H](C(C)C)OC(=O)C[C@@H]1O [8MSAPL1, [Methylsulphonyl]^8-didemnin A] (Ms-[dNMeL]T[X1]LP[NMeY](Me); ester 2-C) | 0.979 nM | 0.979 nM | –
23 | CC[C@H](C)[C@H]1NC(=O)[C@@H](NC(=O)[C@@H](CC(C)C)N(C)C(=O)C2CCCN2C(=O)[C@H](C)O[Si](C)(C)C(C)(C)C)[C@@H](C)OC(=O)[C@H](Cc2ccc(OC)cc2)N(C)C(=O)[C@@H]2CCCN2C(=O)[C@H](CC(C)C)NC(=O)[C@H](C(C)C)NC(=O)C[C@@H]1O (stereo partly drawn) [9LSVPL2(L), [Val]^3-[L-Lac(OTBDMS)]^9-aplidine] (X3-[ξP][dNMeL]T[X2]VLP[NMeY](Me); ester 3-C) | 10.2 nM | 8.55 nM | –
